Test results taken from publication PMC10224356, “Trisubstituted 1,3,5-Triazines as Histamine H4 Receptor Antagonists with Promising Activity In Vivo” (Molecules, 2023).

Assays:
[1] = PAMPA assay (blood-brain barrier permeability); format: in vitro ADME
Procedure: This test is a popular method for estimating the possibility of crossing BBB through passive transport. […] Caffeine was used as a standard well-permeable compound.
The Gentest^TM PAMPA Plate System, purchased from Corning (Tewksbury, MA, USA), was used for permeability evaluation. Caffeine (a reference) and the compound tested were dissolved in DMSO (10 mM stocks) and after dilution to 200 μM in PBS (pH 7.4), added to donor wells. Then, after incubation for 5 h at room temperature, concentrations of tested compounds in donor and acceptor wells were estimated by the mass spectra (LC/MS) method as described previously. The UPLC/MS Waters […] TQD system with the TQ Detector (Waters, Milford, CT, USA) was used for this detection. The assay was performed in triplicate. The permeability value (Pe) was calculated using the formula described by Chen et al..

[2] = target: H1R (Homo sapiens, UniProt P35367); experiment: Preliminary study at H1R
H1R, sequence (P35367 whole entry, species assumed): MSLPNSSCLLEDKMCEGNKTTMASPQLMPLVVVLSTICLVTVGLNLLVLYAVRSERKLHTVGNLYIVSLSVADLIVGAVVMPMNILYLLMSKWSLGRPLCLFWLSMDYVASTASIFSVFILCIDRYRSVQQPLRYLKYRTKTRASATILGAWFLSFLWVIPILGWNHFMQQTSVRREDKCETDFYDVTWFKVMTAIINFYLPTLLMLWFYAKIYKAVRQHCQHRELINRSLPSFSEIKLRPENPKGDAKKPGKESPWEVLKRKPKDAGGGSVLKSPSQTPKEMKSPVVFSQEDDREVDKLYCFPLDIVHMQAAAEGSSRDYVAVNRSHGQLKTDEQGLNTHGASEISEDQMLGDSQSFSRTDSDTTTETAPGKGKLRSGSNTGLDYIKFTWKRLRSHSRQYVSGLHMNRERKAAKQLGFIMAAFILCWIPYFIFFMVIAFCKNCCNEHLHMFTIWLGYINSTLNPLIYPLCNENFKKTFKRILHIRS

Mass Retention (R) ([1]; 200 µM, 5 h): 3.15%
Papp at 5 h, 200 µM ([1]; PBS pH 7.4, permeable if Pe > 1.5 × 10^−6 cm/s, read-out: Pe (permeability coefficient) ± SD): 12.3 ± 0.31 ×10⁻⁶ cm/s
H1R activity at 10 µM [2]: 0%
SMILES: CN1CCN(c2nc(N)nc(CC3CCCC3)n2)CC1 [Compound 6, 4-(Cyclopentylmethyl)-6-(4-methylpiperazin-1-yl)-1,3,5-triazin-2-amine]
